According to publication PMC6753678, “Fueling Open Innovation for Malaria Transmission-Blocking Drugs: Hundreds of Molecules Targeting Early Parasite Mosquito Stages” (Frontiers in Microbiology, 2019):
Where two headings read alike, the source gives them in different places.

How the values were obtained:
HepG2 cells [1] = assay: HepG2 cytotoxicity assay; conditions: HepG2 cytotoxicity unified across the three screens
In short: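 Cells are plated at 2,500 per well on compound-treated plates in MEM containing 10% fetal bovine serum and 1% NEAA, then incubated 48 h at 37°C.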

[2] = test system: P. falciparum late stage (stages IV-V) gametocytes; parameters: method as in Almela et al 2016; conditions: TCAMS screen comparison; ref Almela et al 2016; read-out: Pf GCT ATP IC50; cited from earlier work
[3] = test system: P. falciparum female gametocytes; parameters: method as in Miguel-Blanco et al 2017; conditions: TCAMS screen comparison; ref Miguel-Blanco et al 2017; read-out: Pf FGAA IC50; cited from earlier work
HepG2 cells [4] = conditions: cited from earlier work
[5] = test system: P. falciparum female gametocytes; assay: P. falciparum female gametogenesis assay (Pf FGAA); conditions: 1: YES; 0: NO
[6] = test system: P. falciparum late stage (stages IV-V) gametocytes; assay: P. falciparum late stage gametocyte ATP depletion assay (Pf GC-ATP); conditions: 1: YES; 0: NO
[7] = value reported with the Pf FGAA screen, ref Miguel-Blanco et al 2017
[8] = value reported with the Pf GCT ATP screen, ref Almela et al 2016

SMILES | Unified cytotox (HepG2 cells [1]) [µM] | IC50 [2] [nM] | IC50 [3] [nM] | HepG2 cytoxicity (HepG2 cells [4]; [7]) [µM] | HepG2 cytoxicity (HepG2 cells [4]; [8]) [µM] | Is compound selective in assay? Pf FGAA active? [5] | Is compound selective in assay? Pf GC-ATP active? [6]
CCC(CSC1CCCCC1)N(C)CCN(C)C(CC)CSC1CCCCC1.Cl (stereo not drawn) [TCMDC-131456] | 0.47 | 1400 | 1250 | 0.0654 | 0.87 | 0 (0: NO) | 0 (0: NO)
C[C@H](Cc1ccc(C[C@@H](C)NC[C@H](O)c2cccc(Cl)c2)cc1)NC[C@H](O)COc1ccccc1.Cl [TCMDC-131549] | 4.94 | 920 | 1390 | 5.19 | 4.7 | 0 (0: NO) | 0 (0: NO)
C[C@H](Cc1ccc(CCc2ccc(C[C@@H](C)NC[C@H](O)c3cccc(Cl)c3)cc2)cc1)NC[C@H](O)c1cccc(Cl)c1.Cl [TCMDC-131551] | 3.68 | 270 | 2050 | 4.27 | 3.1 | 0 (0: NO) | 1 (1: YES)
C[C@H](Cc1ccc(Oc2ccc(C[C@@H](C)NC[C@H](O)c3cccc(Cl)c3)cc2)cc1)NC[C@H](O)c1cccc(Cl)c1.Cl [TCMDC-131560] | 1.98 | 270 | 720 | 2.04 | 1.91 | 0 (0: NO) | 0 (0: NO)
C[C@H](Cc1ccc(OCCCCCOc2ccc(C[C@@H](C)NC[C@H](O)c3cccc(Cl)c3)cc2)cc1)NC[C@H](O)c1cccc(Cl)c1.Cl [TCMDC-131563] | 1.95 | 550 | 960 | 2.11 | 1.79 | 0 (0: NO) | 0 (0: NO)
N=C(/N=C(/NCCCCCCN/C(=N\C(=N)Nc1ccc(Cl)cc1)N1CCCCC1)N1CCCCC1)Nc1ccc(Cl)cc1 [TCMDC-131811] | 33.57 | 380 | 7870 | 44.23 | 22.9 | 0 (0: NO) | 1 (1: YES)
N=C(/N=C(/NCCCCCCN/C(=N/C(=N)NCc1ccc(Cl)c(Cl)c1)N1CCCCC1)N1CCCCC1)NCc1ccc(Cl)c(Cl)c1 [TCMDC-131816] | 43.18 | 370 | 2610 | 43.18 | >25 | 1 (1: YES) | 1 (1: YES)
CCN(CC)/C(=N/C(=N)NCc1ccc(Cl)cc1Cl)NCCCCCCN/C(=N\C(=N)NCc1ccc(Cl)cc1Cl)N(CC)CC [TCMDC-131819] | 36.73 | 300 | 4750 | 36.73 | – | 0 (0: NO) | 1 (1: YES)
CCCCN(CCCC)/C(=N/C(=N)NCc1ccc(Cl)c(Cl)c1)NCCCCCCN/C(=N\C(=N)NCc1ccc(Cl)c(Cl)c1)N(CCCC)CCCC [TCMDC-131821] | 13.18 | 620 | 2510 | 13.96 | 12.4 | 0 (0: NO) | 1 (1: YES)
COc1cc2nc(NCCCN3CCCCC3)nc(NCc3ccccc3)c2cc1OC [TCMDC-132012] | 7.89 | 300 | 900 | 6.84 | 8.94 | 0 (0: NO) | 1 (1: YES)
